The structures appear in SMILES notation.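 A five-concentration, 48-hour dose response in 96-well plates underlies each endpoint, interpolated linearly between surrounding concentrations. TGI denotes the concentration required for complete inhibition of growth.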

This is an account of results in PubChem BioAssay (NCI).

Some test systems named below: MCF7 breast; A549 NSCLC; MDA-MB-435; SW-620 colon; OVCAR-8 ovarian; COLO 205 colon; NCI-H522 lung; TK-10 renal; HT29 colon; HOP-62 NSCLC; MOLT-4 leukemia; PC-3 prostate; NCI-H460 lung; HOP-92 NSCLC; A498 renal; SF-268 CNS; HL-60(TB) leukemia.
Experiment in all cases: DTP human tumour cell line panel, 48 h

Usually TGI stands for the concentration at which net growth stops. In the case of `Oc1cccc2ccc(Br)nc12`, the TGI in the experiment with MCF7 breast, in the experiment with A549 NSCLC, with MDA-MB-435, in the experiment with SW-620 colon, with OVCAR-8 ovarian and with COLO 205 colon was over 100 µM throughout. The TGI in the experiment with NCI-H522 lung, with TK-10 renal, with HT29 colon, in the experiment with HOP-62 NSCLC, in the experiment with MOLT-4 leukemia and with PC-3 prostate was over 100 µM each time. The TGI in the experiment with NCI-H460 lung, in the experiment on HOP-92 NSCLC, in the experiment on A498 renal, with SF-268 CNS and in the experiment with HL-60(TB) leukemia was over 100 µM each time.
As to `COc1ccc(NC(=O)NNS(=O)(=O)c2ccc(C)cc2)cc1`, the TGI in the experiment on MCF7 breast, in the experiment on A549 NSCLC, in the experiment with MDA-MB-435, with SW-620 colon, with OVCAR-8 ovarian and with COLO 205 colon was over 100 µM throughout. Besides, the TGI with NCI-H522 lung, in the experiment with TK-10 renal, in the experiment on HT29 colon, in the experiment on HOP-62 NSCLC, in the experiment with MOLT-4 leukemia and in the experiment on PC-3 prostate was over 100 µM each time. Besides, the concentration for total growth inhibition (TGI) in the experiment on NCI-H460 lung, with HOP-92 NSCLC, with A498 renal, in the experiment with SF-268 CNS and in the experiment with HL-60(TB) leukemia was over 100 µM each time.
Regarding `COC(=O)[C@H](C)N(C)C(=O)[C@H](C)N1[C@@H](c2ccccc2)COC1(C)C`, the TGI in the experiment on MCF7 breast, in the experiment on A549 NSCLC, in the experiment with MDA-MB-435, in the experiment on SW-620 colon, in the experiment on OVCAR-8 ovarian and in the experiment on COLO 205 colon was over 100 µM throughout. The TGI with NCI-H522 lung, in the experiment on TK-10 renal, in the experiment with HT29 colon, in the experiment with HOP-62 NSCLC, in the experiment on MOLT-4 leukemia and in the experiment on PC-3 prostate was over 100 µM each time. Also, the TGI with NCI-H460 lung, with HOP-92 NSCLC, in the experiment on A498 renal, in the experiment with SF-268 CNS and in the experiment on HL-60(TB) leukemia was over 100 µM throughout.
Consider `Cc1ccc(O)c(C(c2cc(C)ccc2O)c2cc([N+](=O)[O-])ccc2O)c1`, for which the TGI turned out to be 33.8 µM in the experiment with MCF7 breast; 31.2 µM with A549 NSCLC; 45.3 µM in the experiment with MDA-MB-435; 67 µM in the experiment on SW-620 colon; 25.5 µM in the experiment on OVCAR-8 ovarian; 45.9 µM with COLO 205 colon. The concentration for total growth inhibition (TGI) was 30 µM in the experiment on NCI-H522 lung; 34.8 µM with TK-10 renal; 38.3 µM in the experiment on HT29 colon; 26.3 µM in the experiment on HOP-62 NSCLC; 35 µM with MOLT-4 leukemia; 21.3 µM with PC-3 prostate. The TGI in the experiment on HOP-92 NSCLC worked out at 38.9 µM; in the experiment with A498 renal it was 39.5 µM; in the experiment with SF-268 CNS, 24.6 µM; in the experiment on HL-60(TB) leukemia, 11.7 µM.
With `COc1ccc(C2=NN(C(=O)c3ccc(Cl)cc3)C(O)(c3cc(F)c(Cl)cc3Cl)C2)cc1` (stereo not drawn), the TGI with MCF7 breast, in the experiment with A549 NSCLC, in the experiment with MDA-MB-435, with OVCAR-8 ovarian, in the experiment on COLO 205 colon and with NCI-H522 lung was over 100 µM throughout. Also, the TGI in the experiment on TK-10 renal, with HT29 colon, in the experiment on HOP-62 NSCLC, with MOLT-4 leukemia, in the experiment on PC-3 prostate and in the experiment with NCI-H460 lung was over 100 µM each time. The TGI in the experiment with HOP-92 NSCLC, in the experiment on A498 renal, with SF-268 CNS and with HL-60(TB) leukemia was over 100 µM throughout.
With `Cc1ccc2c(c1)CC1(C2)Cc2ccc(C)cc2C1=O` (stereo not drawn), the TGI was 89 µM in the experiment with MCF7 breast; over 100 µM with A549 NSCLC; over 100 µM with MDA-MB-435; over 100 µM with SW-620 colon; over 100 µM with OVCAR-8 ovarian; 44.3 µM with COLO 205 colon. For the same molecule, the TGI is 61.3 µM in the experiment with NCI-H522 lung; over 100 µM with TK-10 renal; 56.2 µM with HT29 colon; 97.8 µM with HOP-62 NSCLC; 45.7 µM in the experiment on MOLT-4 leukemia; over 100 µM with PC-3 prostate. The TGI with NCI-H460 lung is 55.5 µM; with HOP-92 NSCLC, 66.3 µM; in the experiment with A498 renal, over 100 µM; in the experiment with SF-268 CNS, over 100 µM; with HL-60(TB) leukemia it was 63.4 µM.
`COC(=O)[C@@H]1[C@H]2CC[C@]3(C)[C@@H](OC(C)=O)CC[C@H]3[C@@H]2CC[C@H]1C(C)=O`: the TGI in the experiment on MCF7 breast, with A549 NSCLC, with MDA-MB-435, in the experiment with SW-620 colon, in the experiment on OVCAR-8 ovarian and in the experiment with COLO 205 colon was over 100 µM each time. For the same molecule, the TGI in the experiment on NCI-H522 lung, in the experiment on TK-10 renal, in the experiment with HT29 colon, in the experiment on HOP-62 NSCLC, with MOLT-4 leukemia and with PC-3 prostate was over 100 µM in each case. Further, the TGI with NCI-H460 lung, in the experiment with HOP-92 NSCLC, with A498 renal, with SF-268 CNS and with HL-60(TB) leukemia was over 100 µM throughout.
Consider `CCOC(=O)C1=NNC(C(=O)c2ccccc2)C1c1ccccc1` (stereo not drawn), for which the TGI in the experiment with MCF7 breast was found to be 5.82 µM; with A549 NSCLC it was 41.2 µM; with MDA-MB-435, 3.89 µM; in the experiment with SW-620 colon, 3.48 µM; with OVCAR-8 ovarian, 22 µM; with COLO 205 colon, 3.69 µM. The concentration for total growth inhibition (TGI) in the experiment on NCI-H522 lung is 2.02 µM; in the experiment on TK-10 renal it was 6.42 µM; in the experiment with HT29 colon, 5.3 µM; in the experiment with HOP-62 NSCLC it was 26 µM; in the experiment with MOLT-4 leukemia, over 34.8 µM; in the experiment with PC-3 prostate it was 22.5 µM. Moreover, the TGI was 4.46 µM in the experiment on HOP-92 NSCLC, over 100 µM in the experiment with A498 renal, 19.2 µM with SF-268 CNS and 2.86 µM with HL-60(TB) leukemia.
